Broadly, the LD50 is the dose at which mortality reaches 50%. Read a low LD50 as greater toxicity.

The nature of the first data set: Tolerance and toxicity (general statement). To be noted: racemic mixture or separated optically active forms, whatever the route of administration.
As to `CC(=O)OC(CC(=O)[O-])C[N+](C)(C)C` (stereo not drawn) [acetyl-carnitine], the tolerance result is given as “excellent”.

Another data set is described as follows: in vivo. To be noted: mouse, iv. An excerpt: As is known, carnitine contains an asymetrical carbon atom and consequently exists in two stereoisomer forms.
`CC(=O)CC(=O)OC(CC(=O)[O-])C[N+](C)(C)C` (stereo not drawn) [acetoacetyl-carnitine] returned an LD50 of 728 mg/kg.

On to `CC(=O)OC(CC(=O)[O-])C[N+](C)(C)C` (stereo not drawn) [acetyl-carnitine], for which the 50% lethal dose (LD50) turned out to be 770 mg/kg.

On to `CC(O)CC(=O)OC(CC(=O)[O-])C[N+](C)(C)C` (stereo not drawn) [hydroxybutyryl-carnitine], for which the median lethal dose (LD50) turned out to be 745 mg/kg.

Regarding `CC(C)CC(=O)OC(CC(=O)[O-])C[N+](C)(C)C` (stereo not drawn) [isovaleryl-carnitine], the LD50 was determined as 743 mg/kg. The LD50 values of the last two compounds are within 1.5-fold of each other.

Turning to `C[N+](C)(C)CC(CC(=O)[O-])OC(=O)CCC(=O)O` (stereo not drawn) [succinyl-carnitine], the LD50 came to 780 mg/kg. The LD50 values of the last two compounds are within 1.5-fold of each other.

The record behind these values is US4343816A, “Pharmaceutical composition comprising an acyl-carnitine, for treating peripheral vascular diseases” (priority 1979, dated 1982).
